Source: patent US20260365673A1, “PYRROLO[2,3-D]PYRIMIDIN-4-AMINE DERIVATIVE AND USE THEREOF IN MEDICINE” (HAISCO PHARMACEUTICAL GROUP CO., LTD., priority 2023, published 2026)

Columns and labels:
[1] = Pharmacokinetic Test in Rats (Inhalation Administration); conditions: rat, in vivo, inhaled or intranasal, male SD rats, single dose 0.03 mg/kg; for Cmax / AUC(0-t): lung tissue; for AUC(0-t): read-out: Lung AUC0-t; for Kp: read-out: Lung AUC0-t/plasma AUC0-t
Method: 4: Pharmacokinetic Test in Rats (Inhalation Administration)
The samples were analyzed quantitatively by LC-MS/MS.

[2] = 12-week, PATENT-1, riociguat group, cited from earlier work

## CC(C)(Cc1csc([C@]2(C)C(=O)Nc3nc(-c4nc(CCC(F)(F)C(F)(F)F)n5cc(F)ccc45)nc(N)c32)n1)C(=O)O [Compound 45-1]
[1]
  Cmax: 2850 ng/mL
  AUC(0-t): 4500 ng·h/mL
  Kp: 43.4

## CC(C)(Cc1csc([C@]2(C)C(=O)Nc3nc(-n4nc(CCC(F)(F)C(F)(F)F)c5cc(F)ccc54)nc(N)c32)n1)C(=O)O [Compound 17-1]
[1]
  Cmax: 1750 ng/mL
  AUC(0-t): 2020 ng·h/mL
  Kp: 48.4

## CC(C)(Cc1cccc([C@@]2(C)C(=O)Nc3nc(-c4nn(CCC(F)(F)C(F)(F)F)c5cc(Cl)cnc45)nc(N)c32)c1)C(=O)O [Compound 6-1]
[1]
  Cmax: 2820 ng/mL
  AUC(0-t): 5170 ng·h/mL
  Kp: 659

## COC(=O)N(C)c1c(N)nc(-c2nn(Cc3ccccc3F)c3ncccc23)nc1N [riociguat, Riociguat]
[2]; placebo 2%
  anemia: 7%
  gastroesophageal reflux disease: 5%
[2]; placebo 8%
  diarrhea: 12%

## CC(C)(Cc1csc([C@]2(C)C(=O)Nc3nc(-n4c(=O)n(Cc5ccccc5F)c5cc(F)ccc54)nc(N)c32)n1)C(=O)O [Compound 38-1]
[1]
  Cmax: 1740 ng/mL
  Kp: 83.6

## CC(C)(Cc1csc(C2(C)C(=O)Nc3nc(-n4nc(Cc5cccc(F)c5F)c5ncc(F)cc54)nc(N)c32)n1)C(=O)O (single isomer, unassigned) [Compound 36-1]
[1]
  Cmax: 4070 ng/mL
  AUC(0-t): 10100 ng·h/mL
  Kp: 49.1

## CC(C)(Cc1csc([C@]2(C)C(=O)Nc3nc(-c4nc(Cc5ccccc5F)n5ncccc45)nc(N)c32)n1)C(=O)O [Compound 19-1]
[1]
  Cmax: 2840 ng/mL
  AUC(0-t): 12200 ng·h/mL
  Kp: 245

## CC(C)(Cc1csc([C@]2(C)C(=O)Nc3nc(-c4nc(CCC(F)(F)C(F)(F)F)n5ncccc45)nc(N)c32)n1)C(=O)O [Compound 3-1]
[1]
  Cmax: 2980 ng/mL
  AUC(0-t): 3630 ng·h/mL
  Kp: 65

## CC(C)(Cc1csc(C2(C)C(=O)Nc3nc(-n4nc(CCC(F)(F)C(F)(F)F)c5ncc(F)cc54)nc(N)c32)n1)C(=O)O (single isomer, unassigned) [Compound 37-1]
[1]
  Cmax: 1730 ng/mL
  AUC(0-t): 3280 ng·h/mL

## CC(C)(Cc1csc([C@]2(C)C(=O)Nc3nc(-n4nc(CCC(F)(F)C(F)(F)F)c5cc(Cl)ccc54)nc(N)c32)n1)C(=O)O (single isomer, unassigned) [Compound 4-1]
[1]
  Cmax: 2350 ng/mL
  AUC(0-t): 2460 ng·h/mL
  Kp: 77.1

## CC(C)(Cc1csc([C@]2(C)C(=O)Nc3nc(-c4nn(CCC(F)(F)C(F)(F)F)c5ncccc45)nc(N)c32)n1)C(=O)O [Control compound 1, reference compound]
[1]
  Cmax: 273 ng/mL
  AUC(0-t): 220 ng·h/mL

## CC(C)(Cc1csc([C@]2(C)C(=O)Nc3nc(-n4c(=O)n(CCC(F)(F)C(F)(F)F)c5cc(F)ccc54)nc(N)c32)n1)C(=O)O [Compound 31-1]
[1]
  Cmax: 1180 ng/mL
  AUC(0-t): 608 ng·h/mL
  Kp: 97.9

## CC(C)(Cc1csc(C2(C)C(=O)Nc3nc(-n4nc(Cc5ccccc5F)c5ncc(F)cc54)nc(N)c32)n1)C(=O)O (single isomer, unassigned) [Compound 35-1]
[1]
  Cmax: 2540 ng/mL
  AUC(0-t): 5430 ng·h/mL
